One block for each molecule: values may come before it.
Key:
[1] = target: T1, Pin1 (Mus musculus, UniProt Q9QUR7); test: Pin1 level, mRNA and stability in MEFs (immunoblot, RT-PCR, CHX chase); format: cell-based
T1 construct: endogenous in cells; host or cells: mouse embryonic fibroblasts (MEFs)
Method: RNA from cells was extracted with the Total RNA isolation mini kit (Agilent). cDNA was prepared with transcriptor first strand cDNA synthesis kit (Roche) and PCR was carried out with iQ SYBR Green Supermix (Bio-Rad). Samples were run on the QIAGEN Rotor-Gene Q real-time cycler. GAPDH was used as an internal control. Analysis was performed with the delta-delta ct method. The following primers were used: […]

[2] = tested on: MDA-MB-468 cells; test: MDA-MB-468 xenograft in nude mice
Method: Tumor sizes were measured weekly and mice were sacrificed after 7 weeks to collect tumor tissues (37D). […] Pin1 and cyclin D1 in xenograft tumors were assayed by IB (37F).
(§3) In pilot experiments, MDA-MB-231 cells were subcutaneously injected into female nude mice in the flank.

[3] = tested on: GST-cyclophilin; test: Chymotrypsin coupled PPIase activity assay; format: biochemical
Method: Compounds were preincubated with enzymes for 0.5 to 2 hours at 4° C. Ki values obtained from PPIase assays are derived from the Cheng-Prusoff equation: [formula] where Km is the Michaelis constant for the used substrate, S is the initial concentration of the substrate in the assay, and the IC50 value is of the inhibitor. Cell Growth Assays

[4] = tested on: Pin1; test: Immunoblot of Pin1 and its substrate oncogenes and tumor suppressors in breast cells
Method: For immunoprecipitation and immunoblotting in the examples below, cells were polyethylenimine (PEI)- or lipofemamine-transfected with 8 μg of various plasmids, incubated in 10 cm dishes for 24 hours, and subsequently treatment with drugs as needed. […] After centrifugation at 13,000 g for 10 minutes, one tenth of the supernatant was stored as input, and the remainder was incubated 12 hours with M2 Flag agarose (Sigma). After brief centrifugation, immunoprecipitates were collected, extensively washed with the aforementioned lysis buffer twice, suspended in 2×SDS sample buffer (100 mM Tris-HCl, pH 6.8, 4% SDS, 5% β-mercaptoethanol, 20% glycerol, and 0.1% bromphenol blue), boiled for 10 minutes, and subjected to immunoblotting analysis. […] After electrophoresis, gel was transferred to nitrocellulose membranes using a semidry transfer cell. The transblotted membrane was washed twice with Tris-buffered saline containing 0.1% Tween 20 (TBST). After blocking with TBST containing 5% bovine serum albumin (BSA) for 1 hour, the membrane was incubated with the appropriate primary antibody (diluted 1:1000) in 2% BSA-containing TBST at 4° C. overnight. After incubation with the primary antibody, the membrane was washed three times with TBST for a total of 30 minutes followed by incubation with horseradish peroxidase (HRP)-conjugated goat anti-rabbit or anti-mouse IgG (diluted 1:2500) for 1 hour at room temperature. After three extensive washes with TBST for a total of 30 minutes, the immunoblots were visualized by enhanced chemiluminescence.

[5] = tested on: RAR; test: Transactivation of RAR downstream target genes
[6] = tested on: NIH 3T3 cells; test: Centrosome amplification induced by Pin1 overexpression; settings: 72 hours
[7] = target: GST-FKBP12 (Homo sapiens, UniProt P62942); test: Chymotrypsin coupled PPIase activity assay; format: biochemical
GST-FKBP12, sequence (P62942 whole entry): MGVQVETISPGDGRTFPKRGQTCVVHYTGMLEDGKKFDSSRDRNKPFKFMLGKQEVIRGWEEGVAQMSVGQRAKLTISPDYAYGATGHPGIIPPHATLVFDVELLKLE
Method: (§1) Compounds were preincubated with enzymes for 0.5 to 2 hours at 4° C. Ki values obtained from PPIase assays are derived from the Cheng-Prusoff equation:
(§2) [formula] where Km is the Michaelis constant for the used substrate, S is the initial concentration of the substrate in the assay, and the IC50 value is of the inhibitor. Cell Growth Assays

[8] = target: T2, GST-Pin1 (Homo sapiens, UniProt Q13526); test: Chymotrypsin coupled PPIase activity assay; format: biochemical
T2 sequence (Q13526 whole entry): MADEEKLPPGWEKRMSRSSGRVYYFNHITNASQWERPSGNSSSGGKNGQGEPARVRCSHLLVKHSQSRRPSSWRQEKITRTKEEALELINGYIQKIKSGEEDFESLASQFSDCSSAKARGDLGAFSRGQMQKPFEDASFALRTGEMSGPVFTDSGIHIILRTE
Method: as §1, §2

[9] = tested on: SKBR3 cells; test: Foci formation assay upon Pin1 overexpression
[10] = tested on: MRL/lpr lupus prone mice; test: MRL/lpr lupus prone mice
[11] = tested on: human APL NB4 cells; test: NB4 cell growth
Method: (§4) For cell growth assays described below, cells were seeded in a density of 3000 cells per well in 96-well flat-bottomed plates, and incubated for 24 h in 10% FBS-supplemented DMEM culture medium. […] Control cells received DMSO at a concentration equal to that in drug-treated cells. After 72 hours, the number of cells was counted after trypsin digestion, or medium containing 0.5 mg/ml 3-(4,5-dimethylthiazol-2-yl)-2,5-diphenyl-2H-tetrazolium bromide was added to each well for 2 hours of incubation at 37° C., followed by removal of the media before the addition of 200 μl DMSO. Absorbance was determined at 570 nm.

[12] = tested on: human APL NB4 cells; test: Immunoblot of Pin1 and PML-RARα in APL NB4 cells; format: cell-based; settings: for PML-RARα level: APL cells; for PML-RARα level / Pin1 degradation: 72 hours
[13] = tested on: mouse embryonic fibroblasts (MEFs); test: Cell growth assay in Pin1 WT and Pin1 KO MEFs
Method: as §4

[14] = tested on: APL cells from hCG-PML-RARα transgenic mice; settings: APL mouse model
[15] = tested on: Pin1 and PML-RARα; test: Pin1 and PML-RARα immunostaining in bone marrow of APL patients treated with ATRA
Method: Tissue samples were washed with PBS and fixed with 4% paraformaldehyde at room temperature for 20 minutes, followed by permeabilization and blocking with PBS containing 0.1% Triton X-100 and 5% FBS for 1 hour. After another wash with PBS, immunostaining was performed by incubating the cells with mouse anti-Pin1 (1:1000), or rabbit anti-PML (Santa Cruz; 1:100) primary antibodies at 4° C. overnight. Primary antibodies were diluted in PBS containing 0.1% Triton X-100, 0.2% BSA, 0.5 mM PMSF, and 1 mM dithiothreitol. […] Samples were nuclear counterstained with 4,6-diamidino-2-phenylindole (DAPI), mounted and visualized with a LSM510 confocal imaging system.
Bone marrow aspirates were obtained with informed consent from the iliac crest of patients in whom the diagnosis of acute promyelocytic leukemia was suspected based on the morphological evaluation of peripheral blood smear. […] Samples tested positive for the PML/RARα rearrangement by RT-PCR.

[16] = tested on: human normal and breast cancer cell lines; test: Cell growth of human normal and breast cancer cell lines; format: cell-based
Method: Absorbance was determined at 570 nm.
To test this possibility, we chose breast cancer as a model due to the substantial oncogenic role of Pin1 in vitro and in vivo.

[17] = tested on: MDA-MB-231 cells; test: MDA-MB-231 xenograft in nude mice
Method: Tumor sizes were measured weekly and mice were sacrificed after 7 weeks to collect tumor tissues (37A). […] Pin1 and cyclin D1 in xenograft tumors were assayed by IB (37C).
Tumor sizes were measured weekly and mice were sacrificed after 7 weeks to collect tumor tissues (37G).
Tumor sizes were recorded weekly by a caliber for up to 8 weeks and tumor volumes were calculated using the formula L×W^2×0.52, where L and W represent length and width, respectively.
as §3

[18] = in humans; cited from earlier work
[19] = tested on: cyclin D1 promoter; test: Cyclin D1 promoter luciferase activity upon Pin1 overexpression; settings: 72 hours
[20] = target: T2, GST-Pin1; test: Fluorescence polarization pTide competition assay (FP-HTS / FP assay)
Excerpt: Measurements of fluorescence polarization and fluorescence absorbance were made in black 384-well plates (Corning) using a Synergy II plate reader. […] The assay can tolerate up to 10% DMSO.
Molecules that compete with pTide for binding to the active site, e.g., Pin1 substrates, were detected under equilibrium conditions. A Z score was used to identify and rank those molecules that were most competitive with pTide (e.g., that have higher binding affinity). A Z score is defined as Z=(x−μ)/σ, where x is a raw score, μ is the mean of the population, and σ is the standard deviation of the population. Molecules with the most negative Z scores represent those with the highest Pin1 binding affinity. The Z′ value for this assay was around 0.70 and was consistent for day-to-day performance, with a coefficient of variation in the range of 4-5%.

[21] = tested on: NB4 cells; test: APL cell differentiation (Giemsa staining, FACS with CD14 and CD11b); format: cell-based, human; settings: 72 hours
Excerpt: The latter result could be attributed to the stabilization of RAR protein upon Pin1 KD.

[22] = 5 or 10 mg 21 day ATRA-releasing pellets, 1 week after inoculation
[23] = three sensitive cancer cell lines, 72 hours
[24] = after 10 days of ATRA treatment

T1 sequence (Q9QUR7 whole entry): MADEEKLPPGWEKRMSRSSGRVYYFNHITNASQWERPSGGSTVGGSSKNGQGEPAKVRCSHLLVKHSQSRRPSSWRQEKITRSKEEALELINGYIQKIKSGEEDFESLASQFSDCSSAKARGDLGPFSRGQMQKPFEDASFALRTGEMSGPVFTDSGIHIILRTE

SMILES: CC1=C(/C=C/C(C)=C/C=C/C(C)=C/C(=O)O)C(C)(C)CCC1 [ATRA, all-trans retinoic acid]
Pin1 protein level ([1]; MEFs, immunoblot): dose-dependently down-regulated Pin1
Pin1 mRNA levels ([1]; MEFs, quantitative RT-PCR): no obvious effects
Degradation of PML-RARα and Pin1 ([1]; RARα, β, and γ triple KO MEFs): induced degradation of PML-RARα and Pin1 similar to that for WT controls
Tumor growth [2, 22]: potently and dose-dependently inhibited tumor growth
Pin1 and cyclin D1 in tumors ([2]; ATRA-releasing pellets): reduced both Pin1 and its substrate cyclin D1
Inhibition of cyclophilin [3]: did not inhibit
Effects on Pin1 and substrate proteins in normal MCF10A cells ([4]; MCF10A cells): no appreciable effects
Protein levels of Pin1 and its substrate oncogenes (cyclin D1, HER2, ERa, Akt, NFκB/p65, c-Jun, PKM2) [4, 23]: dose-dependent protein reduction
Protein levels of Pin1 substrate tumor suppressors (Smad2/3, SMRT) [4, 23]: protein induction
Transactivation of RAR downstream target genes (RARβ, TGM2) [5]: effectively and significantly induces transactivation
Centrosome amplification induced by Pin1 overexpression [6]: dose-dependently and fully inhibited
Inhibition of FKBP12 [7]: did not inhibit
Inhibition of the PPIase activity of Pin1 [8]: fully inhibited
Foci formation enhanced by Pin1 overexpression [9]: dose-dependently and fully inhibited
Visual lupus-related phenotypes (fur loss, skin inflammation, lymphoid hyperplasia) ([10]; 5 mg ATRA for 8 weeks from 8 weeks of age): drastically suppressed visual lupus-related phenotypes in all six treated mice
Size of spleen and lymph node ([10]; 14 week-old ATRA-treated mouse): normal size
Glomerular deposition of IgG, C3, and CD68 ([10]; mouse, in vivo): potently inhibited
Hyperkeratinosis ([10]; mouse, in vivo): potently inhibited
NB4 cell proliferation [11]: suppressed
PML-RARα level [12]: dose-dependently reduced PML-RARα
Pin1 and PML-RARα expression ([12]; NB4 cells, 10 μM for 96 hours): reduced Pin1 and PML-RARα expression
Inhibition of growth of Pin1 WT MEFs ([13]; Pin1 WT MEFs): relatively high concentrations of ATRA were required
Inhibition of growth of Pin1 KO MEFs ([13]; Pin1 knockout (KO) cells): much more resistant
PML-RARα in the bone marrow [14]: effectively reduced PML-RARα in the bone marrow
Pin1 levels in the bone marrow [14]: reduced Pin1 levels in the bone marrow
Spleen weight [14]: spleen weights nearly at basal levels
PML-RARα level in bone marrow of APL patients ([15]; after 3 days of ATRA treatment): ~40%
Pin1 level in bone marrow of APL patients ([15]; after 3 days of ATRA treatment): ~40%
PML-RARα level in bone marrow of APL patients [15, 24]: < 10%
Pin1 level in bone marrow of APL patients [15, 24]: < 10%
Cell growth, malignant breast cancer cells ([16]; 72 hours): differential susceptibility
Cell growth, non-transformed MCF10A and HMLE cells ([16]; 72 hours): highly resistant
Tumor growth [17, 22]: potently and dose-dependently inhibited tumor growth
Endogenous and exogenous Pin1 and cyclin D1 in tumors of Pin1-expressing MDA-MB-231 cells ([17]; ATRA implants): dose-dependently reduced both endogenous and exogenous Pin1, and cyclin D1
Tumor growth, MDA-MB-231 cells stably expressing Pin1 ([17]; ATRA implants): effectively inhibited by ATRA in a dose-dependent manner
Pin1 and cyclin D1 in tumors ([17]; ATRA-releasing pellets): reduced both Pin1 and its substrate cyclin D1
Antitumor activity ([17]; intraperitoneally 3 times a week for 8 weeks (12.5 mg/kg)): only modest antitumor activity
Half-life [18]: ~45 min
Activation of the cyclin D1 promoter by Pin1 overexpression [19]: dose-dependently and fully inhibited

SMILES: O=C(O[C@@H]1Cc2c(O)cc(O)cc2O[C@@H]1c1cc(O)c(O)c(O)c1)c1cc(O)c(O)c(O)c1 [EGCG]
APL cell differentiation [21]: neither Pin1 inhibitors nor Pin1 KD induced APL cell differentiation
PML-RARα level [12]: dose-dependently reduced PML-RARα
Pin1 degradation ([12]; NB4 cells): inhibited Pin1 without degrading it
Condition of treated mice (toxic effects) [14]: rather sick
PML-RARα in the bone marrow [14]: effectively reduced PML-RARα in the bone marrow
Spleen weight [14]: spleen weights nearly at basal levels

SMILES: CCOC(=O)CN1C(=O)c2ccc3c4c(ccc(c24)C1=O)C(=O)N(CC(=O)OCC)C3=O [PiB]
APL cell differentiation [21]: neither Pin1 inhibitors nor Pin1 KD induced APL cell differentiation
PML-RARα level [12]: dose-dependently reduced PML-RARα
Pin1 degradation ([12]; NB4 cells): inhibited Pin1 without degrading it

SMILES: COc1cc(C)c(/C=C/C(C)=C/C=C/C(C)=C/C(=O)O)c(C)c1C [acitretin]
Pin1 binding in the FP assay [20]: moderate binding

SMILES: C=C(c1ccc(C(=O)O)cc1)c1cc2c(cc1C)C(C)(C)CCC2(C)C [bexarotene]
Pin1 binding in the FP assay [20]: marginal binding

SMILES: O=C(O)Cc1c[nH]c2ccccc12 [indo-3-acetic acid]
Pin1 binding in the FP assay [20]: neither pravastatin nor indo-3-acetic acid demonstrated any binding

SMILES: Clc1cccc(C(c2ccc3[nH]cnc3c2)n2ccnc2)c1 (centres unmarked) [liarazole]
Inhibition of cell proliferation in combination with ATRA ([16]; AU565 or SKBR3 cells, cytochrome P450 inhibitor plus ATRA): generally additive effects

SMILES: CC1=C(/C=C/C(C)=C/C=C/C(C)=C/C=O)C(C)(C)CCC1 [retinal]
Pin1 binding in the FP assay [20]: totally inactive

SMILES: CC(=O)OC/C=C(C)/C=C/C=C(C)/C=C/C1=C(C)CCCC1(C)C [retinyl acetate]
Pin1 binding in the FP assay [20]: totally inactive

The next lines start with results.

Inhibition of cyclophilin [3]: did not inhibit
Inhibition of FKBP12 [7]: did not inhibit
Inhibition of the PPIase activity of Pin1 [8]: fully inhibited
Z score in FP-HTS ([20]; ~8200 compounds screened): lowest Z score
SMILES: CC1=C(/C=C/C(C)=C/C=C/C(C)=C\C(=O)O)C(C)(C)CCC1 [Compound 13cRA, 13-cis-retinoic acid]

Pin1 binding in the FP assay [20]: minimal Pin1 binding
SMILES: CCCCCCCOc1cc2c(cc1/C(C)=C/c1ccc(C(=O)O)cc1)C(C)(C)CCS2(=O)=O [Ro-415253]
Transactivation of RAR downstream target genes (RARβ, TGM2) [5]: suppresses it

Pin1 binding in the FP assay [20]: totally inactive
SMILES: CC1=C(/C=C/C(C)=C/C=C/C(C)=C/CO)C(C)(C)CCC1 [retinol]

Pin1 binding in the FP assay [20]: moderate binding
SMILES: CC1(C)CCC(C)(C)c2cc(NC(=O)c3ccc(C(=O)O)cc3)ccc21 [tamibarotene]
